Results taken from publication PMC8622623, “Histamine H3 Receptor Ligands—KSK-59 and KSK-73—Reduce Body Weight Gain in a Rat Model of Excessive Eating” (Pharmaceuticals, 2021).

How the values were obtained:
in vitro = conditions: PAMPA, pH 7.4
Procedure: The reference compounds, well-permeable caffeine and low-permeable norfloxacin were obtained from Sigma-Aldrich (St. Louis, MO, USA). Used for this study, pre-coated PAMPA Plate System Gentest™ was provided by Corning (Tewksbury, MA, USA). The system consisted of 96-well receiver filter plate pre-coated with structured layers of phospholipids and a donor microplate. The assay was performed as described previously. […] After 5 h of incubation at RT° the UPLC-MS spectrometry (Waters ACQUITY™ TQD system with the TQ Detector, Waters, Milford, MA, USA) method was used to estimate the quantity of compounds that penetrated from donor to acceptor wells. The permeability coefficients (Pe, cm/s) were calculated using the formulas provided by Corning.

mice fed high fat diet = test system: mice fed high fat diet; parameters: method as in PMID 15833055, PMID 15447739; conditions: mice fed high fat diet ref 4, 16; cited from earlier work
female Wistar rats = experiment: Visceral illness via kaolin intake (pica behavior); type: in vivo; conditions: single i.p., 24 h; vs vehicle control
Procedure: The method was based on the works by Takeda et al. and Yamamoto et al. with minor modification. The experiment lasted for five days. In addition to free access to feed, animals had also free access to a white kaolin. For the first few days, the animals were accustomed to the presence of kaolin in their cages. […] Moreover, animals were weighed before the compounds administration and 24 h after.

rat = conditions: i.p., no reference given; cited from earlier work
laboratory animals = test system: laboratory animals; parameters: method as in PMID 33261900; conditions: laboratory animals ref 12; cited from earlier work

Cn1c(=O)c2c(ncn2C)n(C)c1=O [CFN, caffeine]
Papp at 5 h, 200 µM (in vitro): 12.2 ± 0.94 ×10⁻⁶ cm/s

CN(C)[C@@H]1CCN(CCCOc2ccc(-c3ccc(C#N)cc3)cc2)C1 [Compound A-331440]
body weight (mice fed high fat diet): caused weight loss
insulin tolerance (mice fed high fat diet): normalized insulin tolerance
leptin levels (mice fed high fat diet): lowered leptin levels

O=S(=O)([O-])[O-].[Cu+2] [CuSO4, reference compound]
calorie intake (pica model) (female Wistar rats): reduced caloric intake
water intake (pica model) (female Wistar rats): drank less water
LD50 (rat): 18 mg/kg

N#Cc1ccc(-c2ccc(OCCCN3CCN(c4ccncc4)CC3)cc2)cc1 [KSK-94]
kcal intake (laboratory animals): reduced kcal intake
plasma triglyceride and total cholesterol levels (laboratory animals): lowering plasma triglyceride and total cholesterol levels
weight gain (laboratory animals): strongly prevented weight gain

CCn1cc(C(=O)O)c(=O)c2cc(F)c(N3CCNCC3)cc21 [NFX, norfloxacin]
Papp at 5 h, 200 µM (in vitro): 0.056 ± 0.01 ×10⁻⁶ cm/s
